Article PMC5814047, “Peptidic inhibitors of insulin-degrading enzyme with potential for dermatological applications discovered via phage display” (PLoS ONE, 2018)
“And” between values parts separate entries of the source, which are not always exact repeats. Identical values can stand only once. Ends that are not written are not given here.

Columns and labels:
IDE [1] = target: T1, IDE (Homo sapiens, UniProt P14735); test: biochemical; details: for IC50: FRET1; for IC50 <500 uM?: initial test at 500 uM
T1 construct: made in house; host or cells: bacteria
T1 sequence (P14735 1-1019): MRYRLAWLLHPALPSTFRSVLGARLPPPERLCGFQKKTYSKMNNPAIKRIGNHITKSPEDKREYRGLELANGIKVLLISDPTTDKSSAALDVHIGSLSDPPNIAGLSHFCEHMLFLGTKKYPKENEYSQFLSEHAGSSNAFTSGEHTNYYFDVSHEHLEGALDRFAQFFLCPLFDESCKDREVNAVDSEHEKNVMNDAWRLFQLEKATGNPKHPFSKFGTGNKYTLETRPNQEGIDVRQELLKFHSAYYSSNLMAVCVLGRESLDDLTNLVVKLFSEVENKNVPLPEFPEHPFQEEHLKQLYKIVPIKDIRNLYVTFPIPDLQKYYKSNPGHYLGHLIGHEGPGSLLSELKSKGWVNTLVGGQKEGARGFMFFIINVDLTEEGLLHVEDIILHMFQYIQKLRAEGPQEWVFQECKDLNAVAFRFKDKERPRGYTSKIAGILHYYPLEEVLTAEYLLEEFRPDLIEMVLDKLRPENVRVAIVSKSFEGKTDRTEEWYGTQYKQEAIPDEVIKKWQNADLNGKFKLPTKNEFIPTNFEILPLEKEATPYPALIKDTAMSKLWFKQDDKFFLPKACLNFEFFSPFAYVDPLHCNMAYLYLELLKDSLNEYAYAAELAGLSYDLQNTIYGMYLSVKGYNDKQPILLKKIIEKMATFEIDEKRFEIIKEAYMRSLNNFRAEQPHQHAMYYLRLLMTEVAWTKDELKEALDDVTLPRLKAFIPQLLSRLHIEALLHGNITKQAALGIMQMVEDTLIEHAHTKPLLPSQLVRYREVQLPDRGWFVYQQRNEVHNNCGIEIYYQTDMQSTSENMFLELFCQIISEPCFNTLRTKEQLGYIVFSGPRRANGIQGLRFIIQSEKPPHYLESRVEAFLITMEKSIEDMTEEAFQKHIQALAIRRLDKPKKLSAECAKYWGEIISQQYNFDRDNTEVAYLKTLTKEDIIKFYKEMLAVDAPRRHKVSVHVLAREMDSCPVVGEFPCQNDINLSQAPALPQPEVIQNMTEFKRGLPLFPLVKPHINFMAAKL
Procedure, shortened: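 Recombinant human IDE (1 nM, bacterially expressed) degraded FRET1 substrate (5 μM), fluoresceinated biotinylated amyloid β (500 nM) or human insulin (50 nM) in PBS with 0.05% BSA. Peptides tested included N-acetylated and C-amidated variants.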

IDE [2] = target: T1, IDE; test: Vulnerability of peptides to degradation by IDE: 0 vs 4 h pre-incubation, then FRET1 assay; type: biochemical; details: for Ki: Cheng-Prusoff from IC50, FRET1 KM 10 uM, substrate 5 uM; for remaining activity at 0.12207 µM / remaining activity at 0.488281 µM / remaining activity at 1.95312 µM / remaining activity at 7.8125 µM / remaining activity at 31.25 µM / remaining activity at 125 µM / remaining activity at 500 µM: 4 h, relative to DMSO-only controls, read-out: Percent Activity (normalized initial velocity of FRET1 hydrolysis); for remaining activity at 0.12207 µM: Cmpd 0.12207 uM; for remaining activity at 0.488281 µM: Cmpd 0.488281 uM; for remaining activity at 1.95312 µM: Cmpd 1.95312 uM; for remaining activity at 7.8125 µM: Cmpd 7.8125 uM; for remaining activity at 31.25 µM: Cmpd 31.25 uM; for remaining activity at 125 µM: Cmpd 125 uM; for remaining activity at 500 µM: Cmpd 500 uM; for IC50: FRET1 assay
Procedure, shortened: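 Recombinant human IDE (1 nM, bacterially purified) degrading FRET1 substrate Mca-peptide-Dnp (5 μM) in PBS with 0.05% BSA; peptides pre-incubated 0 or 4 h before assay. Fluorescence monitored as degradation read-out.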

[3] = Cheng-Prusoff, KM 10 uM, substrate concentration 5 uM, read-out: Ki values, Mean
[4] = dose-response, individual runs, read-out: IC50s, Run 1-6
[5] = dose-response, read-out: IC50s, Mean
[6] = judged as IC50 <100 uM?, individual replicates, read-out: Percent activity at 500 uM, Replicate 1-4
[7] = substrate FRET1 5 μM, Ki from IC50 with the Cheng-Prusoff equation, read-out: Ki FRET1
[8] = 4-hr incubation, individual runs
[9] = 0-hr incubation (immediately after combining enzyme and peptide), individual runs, read-out: IC50s
[10] = 4-hr incubation, individual replicates, read-out: IC50s
[11] = 4-hr incubation, mean of 2 replicates, read-out: IC50s, Mean
[12] = dose-response, 500 uM, individual runs, read-out: Percent Activity (normalized source data)

| Ki (IDE [1]; [3]) [µM] | IC50 (IDE [1]; [4]) | IC50 (IDE [1]; [5]) [µM] | IC50 <500 uM? (IDE [1]) | remaining activity at 500 µM (IDE [1]; [6]) [%] | Ki (IDE [1]; [7]) [µM] | Ki (IDE [2]; 4-hr incubation) [µM] | remaining activity at 0.12207 µM (IDE [2]; [8]) [%] | remaining activity at 0.488281 µM (IDE [2]; [8]) [%] | remaining activity at 1.95312 µM (IDE [2]; [8]) [%] | remaining activity at 7.8125 µM (IDE [2]; [8]) [%] | remaining activity at 31.25 µM (IDE [2]; [8]) [%] | remaining activity at 125 µM (IDE [2]; [8]) [%] | remaining activity at 500 µM (IDE [2]; [8]) [%] | IC50 (IDE [2]; [9]) [µM] | IC50 (IDE [2]; [10]) | IC50 (IDE [2]; [11]) [µM] | remaining activity at 500 µM (IDE [1]; [12]) [%] | Substance | also measured |
| --- | --- | --- | --- | --- | --- | --- | --- | --- | --- | --- | --- | --- | --- | --- | --- | --- | --- | --- | --- |
| 39.4 | 25.6 µM and 32.5 µM | 59.2 | YES | 27.1 | 39 ± 20 | 30.6 | 101 | 96.9 | 101 | 97 | 80.9 | 60.2 | 11.2 | 119 | 45.1 µM and 46.8 µM | 45.9 |  | QSLPWCYP-NH2 [P12-3B] | remaining activity at 500 µM (IDE [1]; initial test, percent of initial velocity relative to DMSO-only controls, individual replicates, read-out: Percent activity at 500 uM, Replicate 1-4): 13.7%; IC50 (IDE [2]; 0-hr incubation, mean of runs, read-out: IC50s, Mean): 59.2 µM |
| 5.3 |  | 7.95 | YES |  | 5 ± 0.3 | 62.2 | 79.1 | 75 | 59.1 | 50.1 | 33.7 | 12.7 | 21.4 | 8.43 | 96.5 µM and 90.2 µM | 93.3 | 1.11 | VHWDFRQWWQPS-NH2 [P12-1A] | remaining activity at 0.488281 µM (IDE [1]; dose-response, 0.488281 uM, individual runs, read-out: Percent Activity (normalized source data)): 88.4% |
| 7.71 | 11.6 µM and 9.84 µM and 13.2 µM | 11.6 | YES | 17.6 | 7.7 ± 0.7 | 105 | 97.5 | 104 | 99 | 73.2 | 42.7 | 10 | 0.247 |  | 154 µM and 160 µM | 157 | 0.0455 | VHWDFRQWWQPS [P12-1] |  |
